Experiments:
trkA = target: T1, trkA (Rattus norvegicus, UniProt P35739); experiment: inhibition of NGF-stimulated trk autophosphorylation (tyrosine phosphorylation) in PC12 cells, anti-phosphotyrosine Western blot; type: cell-based; settings: 100 nM compound, NGF 50 ng/ml; note: key: +: Inhibited phosphorylation; -: Did not inhibit phosphorylation
T1 construct: are rat pheochromocytoma cells that bear trkA; host or cells: PC12 rat pheochromocytoma cells

Tsu-Pr1 = experiment: growth inhibition of Tsu-Pr1 prostate cancer cells (calcein fluorescence); type: cell-based; settings: Homo sapiens, TSU-Pr1, 72 h; 3 days incubation; read-out: Tsu-Pr1 IC50
Protocol: (§1) Throughout the experiment the Tsu-Pr1 and Du-Pro1 cells were maintained in RPMI 1640 medium (GIBCO) containing 10% fetal bovine serum (Hyclone), 2 mM glutamine, 100 U/ml penicillin, and 100 μg/ml streptomycin. The PC-3 cells were maintained in Ham's F12K medium (Irvine Scientific) containing 10% fetal bovine serum (Hyclone), 2 mM glutamine, 100 U/ml penicillin, and 100 μg/ml streptomycin. All cell lines were maintained at 37° C. in a humidified atmosphere containing 5% CO2. The DU-145 cells were maintained in minimal essential medium (Gibco), containing 10% fetal bovine serum (Hyclone), 2 mM glutamine, and no antibiotics.
(§2) Tests for growth inhibition by the candidate compounds were conducted by the following procedure. In each well of a 96-well plate (Falcon) were placed 2,500 cells in 0.1 ml of medium. The cultures were incubated overnight after which a 0.1 ml aliquot of culture medium was added to each well. […] Other control wells received medium without any K-252a derivative compounds. Incubation was continued for three days. On day three the number of cells in each well was measured using a calcein fluorescence assay (Bozyczko-Coyne et al. J. Neurosci. Meth. 50, 205-216 (1993)).
(§3) Calcein AM (Molecular Probes, Eugene, Oreg.), an analog of the viable dye fluorescein diacetate, is taken up by cells and cleaved intracellularly to fluorescent salts that are retained by intact membranes of viable cells. This method thus provides a reliable and quantitative measurement of cell survival. Calcein AM was diluted 2× in Dulbeccos phosphate buffered saline (D-PBS) to 2× the final assay concentration (6 μM) and 100 μl was added to culture wells containing 100 μl of medium. The plates were then incubated for 1 hour at 37° C. Cells were then washed 4 times with D-PBS to remove excess calcein not taken up by cells. The plate was read using a Millipore plate reading fluorimeter (Cytofluor 2350) at emission=485 nm and excitation=538 nm. After subtraction of blank values (wells containing medium but no cells), relative fluorescent values reflect a quantitative measurement of cell survival.
(§4) The number of cells in the wells containing functional derivatives was compared to the number of cells in the control wells. The concentration which inhibited cell growth by 50% was calculated and is referred to as the "IC50 ".

PC-3 = experiment: growth inhibition of PC-3 prostate cancer cells (calcein fluorescence); type: cell-based; settings: Homo sapiens, PC-3, 72 h; 3 days incubation; read-out: PC-3 IC50
Protocol: as §1, §2
(§5) Calcein AM (Molecular Probes, Eugene, Oreg.), an analog of the viable dye fluorescein diacetate, is taken up by cells and cleaved intracellularly to fluorescent salts that are retained by intact membranes of viable cells. This method thus provides a reliable and quantitative measurement of cell survival. Calcein AM was diluted 2× in Dulbeccos phosphate buffered saline (D-PBS) to 2× the final assay concentration (6 μM) and 100 μl was added to culture wells containing 100 μl of medium. The plates were then incubated for 1 hour at 37° C. Cells were then washed 4 times with D-PBS to remove excess calcein not taken up by cells. The plate was read using a Millipore plate reading fluorimeter (Cytofluor 2350) at emission=485 nm and excitation=538 nm. After subtraction of blank values (wells containing medium but no cells), relative fluorescent values reflect a quantitative measurement of cell survival. […]

DU-145 = experiment: growth inhibition of DU-145 prostate cancer cells (calcein fluorescence); type: cell-based; settings: Homo sapiens, DU-145, 72 h; 3 days incubation; read-out: DU-145 C50
Protocol: as §1, §2, §3, §4

[1] = test system: androgen independent human prostate cancer cell lines Tsu-Pr1, DuPro-1, PC-3 and DU-145; experiment: growth inhibition of prostate cancer-derived cell lines, overall (calcein fluorescence); type: cell-based; settings: Table 3
Protocol: as §1, §2, §5

prostate glands = experiment: inhibition of prostate growth in sexually immature mice (weight of prostate glands); type: in vivo; settings: for Ventral Prostate weight / Dorsal Prostate weight / Coagulat-ing Glands weight / Seminal Vesicles weight: Table 6; for Ventral Prostate weight: TEPBS 14.0 ± 0.8; for Dorsal Prostate weight: TEPBS 14.6 ± 1.4; for Coagulat-ing Glands weight: TEPBS 29.6 ± 2.0; for Seminal Vesicles weight: TEPBS 71.4 ± 2.4
From the text: The following animal model can be used to test the efficacy of a functional derivative for treatment of a proliferative prostate condition. Sexually immature male mice of 15-20 g each (Charles River Laboratories, Raleigh, N.C.) were used in the following in vivo study. The mice were allowed at least 3 days after purchase to acclimate before being used in any experiments.
Each test group contained 12 mice. […] At the end of the 21 day dosing period the mice were sacrificed and whole body blood, dorsal prostate, ventral prostate, coagulating glands, seminal vesicles, heart, liver, stomach, lung, kidneys and testes were collected separately and weighed.

[2] = test system: Dunning R-3327 AT-2.1 prostate tumor; experiment: inhibition of growth of Dunning R-3327 AT-2.1 prostate tumor in adult male Copenhagen rats; type: in vivo, rat; settings: 10 mg/kg/day s.c.
From the text: The AT-2 tumor is a highly anaplastic cell line derived from the original slow-growing androgen-dependent Dunning R-3327 H rat prostate tumor (Issacs et al., Prostate 9:261-281, 1986). The AT-2 tumor model has been used to characterize other potential anti-prostatic cancer agents including linomide (Ichikawa et al., Cancer Research 52:3022-3028, 1992) and suramin (Morton et al., Prostate 17:327-336, 1990) which is undergoing evaluation in clinical trials for androgen-independentprostate cancer (Eisenberger et al., J. Natl. Can. Inst. 85: 611-621, 1993).
Experimental Protocol: Twenty-four inbred male Copenhagen rats were inoculated subcutaneously in the flank with 1×10^6 viable AT-2.1 tumor cells. All animals were allowed to develop tumors of approximately 2.7 cm^3 in size (approximately 14 days) before being randomized into three groups of 8 animals each. Group 1 received daily subcutaneous injections of vehicle alone (1 ml/kg body weight). […] All animals had their tumor sizes evaluated for a period of 16 days. Tumor volume was calculated using the formula (1×w^2)×0.5.

T1 sequence (P35739 33-799): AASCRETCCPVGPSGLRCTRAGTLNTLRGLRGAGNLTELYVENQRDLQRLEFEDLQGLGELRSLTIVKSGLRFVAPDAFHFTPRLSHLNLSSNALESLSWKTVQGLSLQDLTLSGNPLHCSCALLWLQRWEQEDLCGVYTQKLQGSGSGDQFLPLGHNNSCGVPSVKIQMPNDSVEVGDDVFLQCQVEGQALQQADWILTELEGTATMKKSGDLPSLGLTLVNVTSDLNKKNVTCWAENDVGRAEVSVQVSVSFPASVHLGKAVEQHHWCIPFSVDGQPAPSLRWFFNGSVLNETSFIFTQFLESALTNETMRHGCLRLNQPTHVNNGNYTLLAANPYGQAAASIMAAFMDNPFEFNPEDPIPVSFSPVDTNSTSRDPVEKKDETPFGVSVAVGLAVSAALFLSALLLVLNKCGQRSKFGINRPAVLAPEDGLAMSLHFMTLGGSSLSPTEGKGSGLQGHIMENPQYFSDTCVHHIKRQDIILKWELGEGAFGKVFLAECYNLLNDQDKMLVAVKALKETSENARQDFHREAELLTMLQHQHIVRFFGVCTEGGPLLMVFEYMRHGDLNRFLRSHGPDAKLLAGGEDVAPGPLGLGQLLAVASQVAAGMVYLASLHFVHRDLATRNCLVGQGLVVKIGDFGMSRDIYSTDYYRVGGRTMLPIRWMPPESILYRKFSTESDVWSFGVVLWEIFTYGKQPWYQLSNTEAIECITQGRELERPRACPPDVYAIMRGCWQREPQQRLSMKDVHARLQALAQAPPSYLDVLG

- trk 100 nM (inhibition of phosphorylation) (trkA): +
- IC50 (Tsu-Pr1): 70 nM
- IC50 (PC-3): 5000 nM
- IC50 (DU-145): 110 nM
SMILES: COC1(CO)CC2OC1(C)n1c3ccccc3c3c4c(c5c6ccccc6n2c5c31)C(=O)NC4 (stereo not drawn) [Compound I-19]
- potency in inhibiting prostate cell line growth, in words [1]: most potent compounds in inhibiting growth in all four cell lines
- weights of ventral prostate, dorsal prostate, seminal vesicles, and coagulating glands, in words (prostate glands; 1 mg/kg): significantly reduced the weights of ventral prostate, dorsal prostate, seminal vesicles, and coagulating glands
- weights of ventral prostate, dorsal prostate, seminal vesicles, and coagulating glands, in words (prostate glands; 10 mg/kg): significantly reduced the weights of ventral prostate, dorsal prostate, seminal vesicles, and coagulating glands
- Ventral Prostate weight (prostate glands; 1 mg/kg): 11.0 ± 0.9 mg
- Dorsal Prostate weight (prostate glands; 1 mg/kg): 10.4 ± 0.9 mg
- Coagulat-ing Glands weight (prostate glands; 1 mg/kg): 24.6 ± 1.4 mg
- Seminal Vesicles weight (prostate glands; 1 mg/kg): 60.0 ± 2.2 mg
- Ventral Prostate weight (prostate glands; 10 mg/kg): 10.5 ± 0.6 mg
- Dorsal Prostate weight (prostate glands; 10 mg/kg): 7.2 ± 0.8 mg
- Coagulat-ing Glands weight (prostate glands; 10 mg/kg): 23.6 ± 0.8 mg
- Seminal Vesicles weight (prostate glands; 10 mg/kg): 52.0 ± 2.0 mg
- inhibiting growth of AT-2.1 tumors ([2]; approximately): 50-60%
- Tumor volume Day 0 ([2]; vehicle 2.73 ± 0.50): 2.62 ± 0.53 cm^3
- Tumor volume Day 3 ([2]; vehicle 6.66 ± 1.48): 5.52 ± 1.10 cm^3
- Tumor volume Day 8 ([2]; vehicle 21.0 ± 3.0): 11.3 ± 1.8 cm^3
- Tumor volume Day 13 ([2]; vehicle 37.3 ± 4.0): 22.4 ± 2.7 cm^3
- Tumor volume Day 16 ([2]; vehicle 58.7 ± 5.0): 28.4 ± 5.1 cm^3

Source: US5654427A, “Indolocarbazole derivatives to treat a pathological condition of the prostate” (Kyowa Hakko Kogyo Co., Ltd., priority 1995, dated 1997)
